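Each compound was tested at five concentrations against cells in 96-well plates for 48 hours. Abbreviation: GI50, concentration required for 50% inhibition of growth.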 Calls of active or inactive are those of the source. Rule as the data show it: active = GI50 up to about 1.1 µM and inactive = higher.
Assays:
Assay in all cases: inhibition of tumour cell growth, NCI panel, 48 h
[1] = system: MCF7
[2] = system: T47D
[3] = system: COLO 205
[4] = system: NCI-H226
[5] = system: SF-295
[6] = system: SNB-19
[7] = system: EKVX
[8] = system: HCT-15
[9] = system: SK-MEL-5
[10] = system: LOX IMVI
[11] = system: SK-OV-3
[12] = system: CAKI-1
[13] = system: IGROV-1
[14] = system: Hs-578T
[15] = system: HOP-62
[16] = system: A498
[17] = system: OVCAR-5
[18] = system: HCT-116
[19] = system: TK-10
[20] = system: U-251
[21] = system: HOP-92
[22] = system: M14
[23] = system: A549
[24] = system: RPMI-8226
[25] = system: SNB-75
[26] = system: CCRF-CEM
[27] = system: RXF 393
[28] = system: HL-60
[29] = system: SF-268
[30] = system: NCI/ADR-RES
[31] = system: SK-MEL-2
[32] = system: OVCAR-3
[33] = system: SK-MEL-28
[34] = system: OVCAR-4
[35] = system: OVCAR-8
[36] = system: Malme-3M
[37] = system: NCI-H23
[38] = system: UO-31
[39] = system: SW-620
[40] = system: SN12C
[41] = system: MDA-MB-231
[42] = system: UACC-62
[43] = system: MDA-MB-435
[44] = system: ACHN
[45] = system: SR
[46] = system: DU-145
[47] = system: NCI-H522
[48] = system: HT-29
[49] = system: MDA-N
[50] = system: NCI-H460
[51] = system: K562
[52] = system: UACC-257
[53] = system: KM12
[54] = system: 786-0
[55] = system: PC-3
[56] = system: BT-549
[57] = system: MOLT-4
[58] = system: SF-539

For CC(C)C(Nc1ncnc2nc[nH]c12)C(=O)O (stereo unspecified), the GI50 [1] was > 100 µM (inactive), the GI50 [2] was > 100 µM (inactive) and the GI50 [3] was > 100 µM (inactive). For the same molecule, the GI50 [4] was > 100 µM (inactive), the GI50 [5] was > 100 µM (inactive) and the GI50 [6] was > 100 µM (inactive). For the same molecule, the GI50 [7] was > 100 µM (inactive), the GI50 [8] was greater than 100 µM and the GI50 [9] was > 100 µM (inactive). The GI50 [10] was > 100 µM (inactive), the GI50 [11] was > 100 µM (inactive) and the GI50 [12] was > 100 µM (inactive). For the same molecule, the GI50 [13] was > 100 µM (inactive), the GI50 [14] was > 100 µM (inactive) and the GI50 [15] was > 100 µM (inactive). For the same molecule, the GI50 [16] was > 100 µM (inactive), the GI50 [17] was > 100 µM (inactive) and the GI50 [18] was > 100 µM (inactive). The GI50 [19] was > 100 µM (inactive), the GI50 [20] was > 100 µM (inactive) and the GI50 [21] was > 100 µM (inactive). The GI50 [22] was > 100 µM (inactive), the GI50 [23] was > 100 µM (inactive) and the GI50 [24] was > 100 µM (inactive). The GI50 [25] was > 100 µM (inactive), the GI50 [26] was > 100 µM (inactive) and the GI50 [27] was > 100 µM (inactive). The GI50 [28] was > 100 µM (inactive), the GI50 [29] was > 100 µM (inactive) and the GI50 [30] was > 100 µM (inactive). For the same molecule, the GI50 [31] was > 100 µM (inactive), the GI50 [32] was > 100 µM (inactive) and the GI50 [33] was > 100 µM (inactive). The GI50 [34] was > 100 µM (inactive), the GI50 [35] was > 100 µM (inactive) and the GI50 [36] was > 100 µM (inactive). The GI50 [37] was > 100 µM (inactive), the GI50 [38] was > 100 µM (inactive) and the GI50 [39] was > 100 µM (inactive). For the same molecule, the GI50 [40] was > 100 µM (inactive), the GI50 [41] was > 100 µM (inactive) and the GI50 [42] was > 100 µM (inactive). The GI50 [43] was > 100 µM (inactive), the GI50 [44] was > 100 µM (inactive) and the GI50 [45] was > 100 µM (inactive). For the same molecule, the GI50 [46] was > 100 µM (inactive), the GI50 [47] was > 100 µM (inactive) and the GI50 [48] was > 100 µM (inactive). For the same molecule, the GI50 [49] was > 100 µM (inactive), the GI50 [50] was > 100 µM (inactive) and the GI50 [51] was > 100 µM (inactive). The GI50 [52] was > 100 µM (inactive), the GI50 [53] was > 100 µM (inactive) and the GI50 [54] was > 100 µM (inactive). The GI50 [55] was > 100 µM (inactive) and the GI50 [56] was > 100 µM (inactive).

With CCOC(=O)C1(CC(=O)O)CCCC1=O (stereo unspecified) the GI50 [1] was > 100 µM (inactive), the GI50 [2] was > 100 µM (inactive) and the GI50 [3] was > 100 µM (inactive). For the same molecule, the GI50 [4] was > 100 µM (inactive), the GI50 [5] was > 100 µM (inactive) and the GI50 [6] was > 100 µM (inactive). The GI50 [7] was > 100 µM (inactive), the GI50 [8] was greater than 100 µM and the GI50 [9] was > 100 µM (inactive). The GI50 [10] was > 100 µM (inactive), the GI50 [11] was > 100 µM (inactive) and the GI50 [12] was > 100 µM (inactive). For the same molecule, the GI50 [13] was > 100 µM (inactive), the GI50 [14] was > 100 µM (inactive) and the GI50 [15] was > 100 µM (inactive). The GI50 [16] was > 100 µM (inactive), the GI50 [17] was > 100 µM (inactive) and the GI50 [18] was > 100 µM (inactive). The GI50 [19] was > 100 µM (inactive), the GI50 [20] was > 100 µM (inactive) and the GI50 [21] was > 100 µM (inactive). For the same molecule, the GI50 [22] was > 100 µM (inactive), the GI50 [23] was > 100 µM (inactive) and the GI50 [24] was > 100 µM (inactive). The GI50 [25] was > 100 µM (inactive), the GI50 [26] was > 100 µM (inactive) and the GI50 [27] was > 100 µM (inactive). For the same molecule, the GI50 [28] was > 100 µM (inactive), the GI50 [29] was > 100 µM (inactive) and the GI50 [30] was > 100 µM (inactive). The GI50 [31] was > 100 µM (inactive), the GI50 [32] was > 100 µM (inactive) and the GI50 [33] was > 100 µM (inactive). The GI50 [57] was 0.475 µM (active), the GI50 [34] was > 100 µM (inactive) and the GI50 [35] was > 100 µM (inactive). For the same molecule, the GI50 [36] was > 100 µM (inactive), the GI50 [37] was > 100 µM (inactive) and the GI50 [38] was > 100 µM (inactive). The GI50 [39] was > 100 µM (inactive), the GI50 [40] was > 100 µM (inactive) and the GI50 [41] was > 100 µM (inactive). The GI50 [42] was > 100 µM (inactive), the GI50 [43] was > 100 µM (inactive) and the GI50 [44] was > 100 µM (inactive). For the same molecule, the GI50 [45] was > 100 µM (inactive), the GI50 [46] was > 100 µM (inactive) and the GI50 [47] was > 100 µM (inactive). For the same molecule, the GI50 [48] was > 100 µM (inactive), the GI50 [49] was > 100 µM (inactive) and the GI50 [50] was > 100 µM (inactive). For the same molecule, the GI50 [51] was > 100 µM (inactive), the GI50 [52] was > 100 µM (inactive) and the GI50 [53] was > 100 µM (inactive). The GI50 [58] was > 100 µM (inactive), the GI50 [54] was > 100 µM (inactive) and the GI50 [55] was > 100 µM (inactive). The GI50 [56] was > 100 µM (inactive).

COc1nc2c(c(=O)n1C)N[C@H]1[C@H](OC(C)=O)[C@@H](OC(C)=O)CO[C@H]1N2 was tested, and the GI50 [1] was > 100 µM (inactive), the GI50 [2] was > 100 µM (inactive) and the GI50 [3] was > 100 µM (inactive). The GI50 [4] was > 100 µM (inactive), the GI50 [5] was > 100 µM (inactive) and the GI50 [6] was > 100 µM (inactive). The GI50 [7] was > 100 µM (inactive), the GI50 [8] was greater than 100 µM and the GI50 [9] was > 100 µM (inactive). For the same molecule, the GI50 [10] was > 100 µM (inactive), the GI50 [11] was > 100 µM (inactive) and the GI50 [12] was > 100 µM (inactive). For the same molecule, the GI50 [13] was > 100 µM (inactive), the GI50 [14] was > 100 µM (inactive) and the GI50 [15] was > 100 µM (inactive). For the same molecule, the GI50 [16] was > 100 µM (inactive), the GI50 [17] was > 100 µM (inactive) and the GI50 [18] was > 100 µM (inactive). The GI50 [19] was > 100 µM (inactive), the GI50 [20] was > 100 µM (inactive) and the GI50 [21] was > 100 µM (inactive). For the same molecule, the GI50 [22] was > 100 µM (inactive), the GI50 [23] was > 100 µM (inactive) and the GI50 [24] was > 100 µM (inactive). The GI50 [25] was > 100 µM (inactive), the GI50 [26] was > 10 µM (inactive) and the GI50 [27] was > 100 µM (inactive). For the same molecule, the GI50 [28] was > 100 µM (inactive), the GI50 [29] was > 100 µM (inactive) and the GI50 [30] was > 100 µM (inactive). The GI50 [31] was > 100 µM (inactive), the GI50 [32] was > 100 µM (inactive) and the GI50 [33] was > 100 µM (inactive). The GI50 [57] was > 100 µM (inactive), the GI50 [34] was > 100 µM (inactive) and the GI50 [35] was > 100 µM (inactive). For the same molecule, the GI50 [36] was > 100 µM (inactive), the GI50 [38] was > 100 µM (inactive) and the GI50 [39] was > 100 µM (inactive). The GI50 [40] was > 100 µM (inactive), the GI50 [41] was > 100 µM (inactive) and the GI50 [42] was > 100 µM (inactive). For the same molecule, the GI50 [43] was > 100 µM (inactive), the GI50 [44] was > 100 µM (inactive) and the GI50 [45] was > 100 µM (inactive). The GI50 [46] was > 100 µM (inactive), the GI50 [47] was > 100 µM (inactive) and the GI50 [48] was > 100 µM (inactive). For the same molecule, the GI50 [49] was > 100 µM (inactive), the GI50 [50] was > 100 µM (inactive) and the GI50 [51] was > 100 µM (inactive). For the same molecule, the GI50 [52] was > 100 µM (inactive), the GI50 [53] was > 100 µM (inactive) and the GI50 [58] was > 100 µM (inactive). The GI50 [54] was > 100 µM (inactive), the GI50 [55] was > 100 µM (inactive) and the GI50 [56] was > 100 µM (inactive).

Reference: ChEMBL document CHEMBL1201862, “PubChem BioAssay data set” (2004)
